Measurements: patent US10005767B2, “Compositions and methods for inhibition of the JAK pathway” (Rigel Pharmaceuticals, Inc., priority 2009, dated 2018)
Structures can show the parent of a compound that is named as a salt.

test system: human primary T-cells, IL-2 stimulated proliferation (JAK-1 and JAK-3 dependent; reported as JAK3 activity); test: Human primary T-cell proliferation stimulated by IL-2 (Example 3); type: cell-based; settings: Homo sapiens, T-cell, tested under conditions described in Example 3 (IL-2 stimulated human primary T-cell proliferation); read-out: ability to inhibit JAK3 activity, IC50 range (Table V)
In short: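 Peripheral-blood human T-cells pre-activated via TCR/CD28, IL-2-starved overnight, then cultured 72 h at 37 °C with compound in Yssel's medium containing IL-2 (80 U/mL in cell suspension). Proliferation read as viable-cell ATP by CellTiter-Glo luminescence; reduction versus control taken as JAK pathway inhibition.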

Compound	IC50 [nM]
COc1ccc(C(F)(F)F)cc1Nc1ncc(C)c(Nc2ccc3oc(=O)[nH]c3c2)n1 [Compound I-498, 5-[2-(2-Methoxy-5-trifluoromethyl-phenylamino)-5-methyl-pyrimidin-4-ylamino]-3H-benzooxazol-2-one]	500 to 5000
Cc1ccccc1Nc1ncc(C)c(Nc2ccc3oc(=O)[nH]c3c2)n1 [Compound I-499, 5-(2-(o-toluidino)-5-methylpyrimidin-4-ylamino)benzo[d]oxazol-2(3H)-one]	500 to 5000
Cc1cnc(Nc2cccc(C)c2C)nc1Nc1ccc2oc(=O)[nH]c2c1 [Compound I-500, 5-(2-(2,3-dimethylphenylamino)-5-methylpyrimidin-4-ylamino)benzo[d]oxazol-2(3H)-one]	500 to 5000
Cc1ccc(C)c(Nc2ncc(C)c(Nc3ccc4oc(=O)[nH]c4c3)n2)c1 [Compound I-501, 5-(2-(2,5-dimethylphenylamino)-5-methylpyrimidin-4-ylamino)benzo[d]oxazol-2(3H)-one]	500 to 5000
CCc1ccccc1Nc1ncc(C)c(Nc2ccc3oc(=O)[nH]c3c2)n1 [Compound I-502, 5-(2-(2-ethylphenylamino)-5-methylpyrimidin-4-ylamino)benzo[d]oxazol-2(3H)-one]	500 to 5000
CCc1cccc(Nc2ncc(C)c(Nc3ccc4oc(=O)[nH]c4c3)n2)c1 [Compound I-503, 5-(2-(3-ethylphenylamino)-5-methylpyrimidin-4-ylamino)benzo[d]oxazol-2(3H)-one]	< 500
CCc1ccc(Nc2ncc(C)c(Nc3ccc4oc(=O)[nH]c4c3)n2)cc1 [Compound I-504, 5-(2-(4-ethylphenylamino)-5-methylpyrimidin-4-ylamino)benzo[d]oxazol-2(3H)-one]	< 500
Cc1cnc(Nc2ccc(-c3cccnc3)c(F)c2)nc1Nc1ccc2oc(=O)[nH]c2c1 [Compound I-505, 5-(2-(3-fluoro-4-(pyridin-3-yl)phenylamino)-5-methylpyrimidin-4-ylamino)benzo[d]oxazol-2(3H)-one trifluoroacetic acid salt]	> 10000
COc1cc(Nc2ncc(C)c(Nc3ccc4oc(=O)[nH]c4c3)n2)ccc1-c1cccnc1 [Compound I-506, 5-(2-(3-methoxy-4-(pyridin-3-yl)phenylamino)-5-methylpyrimidin-4-ylamino)benzo[d]oxazol-2(3H)-one formate salt]	< 500
COc1c(F)ccc(Nc2ncc(C)c(Nc3cc(C)c4oc(=O)[nH]c4c3)n2)c1F [Compound I-507, 5-(2-(2,4-difluoro-3-methoxyphenylamino)-5-methylpyrimidin-4-ylamino)-7-methylbenzo[d]oxazol-2(3H)-one]	< 500
COc1c(F)ccc(Nc2ncc(C)c(Nc3cc(F)c4oc(=O)[nH]c4c3)n2)c1F [Compound I-508, 5-(2-(2,4-difluoro-3-methoxyphenylamino)-5-methylpyrimidin-4-ylamino)-7-fluorobenzo[d]oxazol-2(3H)-one]	< 500
Cc1cnc(Nc2ccc(-c3ccc(Cl)nc3)cc2)nc1Nc1ccc2oc(=O)[nH]c2c1 [Compound I-509, 5-(2-(4-(6-chloropyridin-3-yl)phenylamino)-5-methylpyrimidin-4-ylamino)benzo[d]oxazol-2(3H)-one trifluoroacetate salt]	> 10000
Cc1cnc(Nc2ccc(-c3ccc(OCCCN(C)C)nc3)cc2)nc1Nc1ccc2oc(=O)[nH]c2c1 [Compound I-511, 5-(2-(4-(6-(3-(dimethylamino)propoxy)pyridin-3-yl)phenylamino)-5-methylpyrimidin-4-ylamino)benzo[d]oxazol-2(3H)-one trifluoroacetate salt]	< 500
Cc1cnc(Nc2ccc(-c3ccc(N4CCOCC4)nc3)cc2)nc1Nc1ccc2oc(=O)[nH]c2c1 [Compound I-512, 5-(5-methyl-2-(4-(6-morpholinopyridin-3-yl)phenylamino)pyrimidin-4-ylamino)benzo[d]oxazol-2(3H)-one trifluoroacetate salt]	< 500
Cc1cnc(Nc2cccc(C)c2F)nc1Nc1ccc2oc(=O)[nH]c2c1 [Compound I-513, 5-(2-(2-fluoro-3-methylphenylamino)-5-methylpyrimidin-4-ylamino)benzo[d]oxazol-2(3H)-one]	< 500
Cc1ccc(Nc2ncc(C)c(Nc3ccc4oc(=O)[nH]c4c3)n2)c(F)c1 [Compound I-514, 5-(2-(2-fluoro-4-methylphenylamino)-5-methylpyrimidin-4-ylamino)benzo[d]oxazol-2(3H)-one]	< 500
Cc1ccc(F)c(Nc2ncc(C)c(Nc3ccc4oc(=O)[nH]c4c3)n2)c1 [Compound I-515, 5-(2-(2-fluoro-5-methylphenylamino)-5-methylpyrimidin-4-ylamino)benzo[d]oxazol-2(3H)-one]	< 500
Cc1cnc(Nc2cccc(C(F)(F)F)c2C)nc1Nc1ccc2oc(=O)[nH]c2c1 [Compound I-518, 5-[5-Methyl-2-(2-methyl-3-trifluoromethyl-phenylamino)-pyrimidin-4-ylamino]-3H-benzooxazol-2-one]	< 500
CC(=O)c1ccc(F)c(Nc2ncc(C)c(Nc3ccc4oc(=O)[nH]c4c3)n2)c1 [Compound I-519, 5-(2-(5-acetyl-2-fluorophenylamino)-5-methylpyrimidin-4-ylamino)benzo[d]oxazol-2(3H)-one]	< 500
Cc1cnc(Nc2ccccc2Cl)nc1Nc1ccc2oc(=O)[nH]c2c1 [Compound I-520, 5-(2-(2-chlorophenylamino)-5-methylpyrimidin-4-ylamino)benzo[d]oxazol-2(3H)-one]	500 to 5000
Cc1ccc(Cl)c(Nc2ncc(C)c(Nc3ccc4oc(=O)[nH]c4c3)n2)c1 [Compound I-521, 5-(2-(2-chloro-5-methylphenylamino)-5-methylpyrimidin-4-ylamino)benzo[d]oxazol-2(3H)-one]	< 500
Cc1cnc(Nc2cc(C(C)O)ccc2F)nc1Nc1ccc2oc(=O)[nH]c2c1 (stereo not shown) [Compound I-523, 5-(2-(2-fluoro-5-(1-hydroxyethyl)phenylamino)-5-methylpyrimidin-4-ylamino)benzo[d]oxazol-2(3H)-one]	< 500
Cc1cnc(Nc2cc(C)c(I)c(C)c2)nc1Nc1ccc2oc(=O)[nH]c2c1 [Compound I-527, 5-[2-(4-Iodo-3,5-dimethyl-phenylamino)-5-methyl-pyrimidin-4-ylamino]-3H-benzooxazol-2-one]	< 500
COc1cc(Nc2ncc(C)c(Nc3ccc4oc(=O)[nH]c4c3)n2)cc(OC)c1C [Compound I-529, 5-(2-(3,5-dimethoxy-4-methylphenylamino)-5-methylpyrimidin-4-ylamino)benzo[d]oxazol-2(3H)-one]	< 500
Cc1cc(F)c(Nc2ncc(C)c(Nc3ccc4oc(=O)[nH]c4c3)n2)cc1C [Compound I-530, 5-(2-(2-fluoro-4,5-dimethylphenylamino)-5-methylpyrimidin-4-ylamino)benzo[d]oxazol-2(3H)-one]	< 500
Cc1cnc(Nc2ccc(C)c(C(F)(F)F)c2F)nc1Nc1ccc2oc(=O)[nH]c2c1 [Compound I-532, 5-(2-(2-fluoro-4-methyl-3-(trifluoromethyl)phenylamino)-5-methylpyrimidin-4-ylamino)benzo[d]oxazol-2(3H)-one]	< 500
COc1ccc(F)c(Nc2ncc(C)c(Nc3ccc4oc(=O)[nH]c4c3)n2)c1 [Compound I-533, 5-(2-(2-fluoro-5-methoxyphenylamino)-5-methylpyrimidin-4-ylamino)benzo[d]oxazol-2(3H)-one]	< 500
COc1cc(Nc2ncc(C)c(Nc3ccc4oc(=O)[nH]c4c3)n2)cc(C)c1C [Compound I-535, 5-(2-(3-methoxy-4,5-dimethylphenylamino)-5-methylpyrimidin-4-ylamino)benzo[d]oxazol-2(3H)-one]	< 500
COc1cc(C)cc(Nc2ncc(C)c(Nc3cc(C)c4oc(=O)n(COP(=O)(O)O)c4c3)n2)c1 [Compound I-536, Sodium (5-(2-(3-methoxy-5-methylphenylamino)-5-methylpyrimidin-4-ylamino)-7-methyl-2-oxobenzo[d]oxazol-3 (2H)-yl)methyl phosphate]	5000 to 10000

same assay, conditions: tested under conditions described in Example 3 (IL-2 stimulated human primary T-cell proliferation); read-out: ability to inhibit JAK3 activity, IC50 range (Table V)

Compound	IC50 [nM]
Cc1cc(Nc2ncc(C)c(Nc3ccc4oc(=O)[nH]c4c3)n2)cc(OC(F)F)c1 [Compound I-516, N2-(3-difluoromethoxy-5-methyl)phenyl-5-methyl-N4-(2-oxo-2,3-dihydro-1,3-benzoxazol-5-yl)-2,4-pyrimidinediamine]	< 500
Cc1cnc(Nc2cc(C)c(C)c(C)c2)nc1Nc1cc(Cl)c2oc(=O)[nH]c2c1 [Compound I-522, N4-(7-chloro-2-oxo-2,3-dihydro-1,3-benzoxazol-5-yl)-5-methyl-N2-(3,4,5-trimethyl)phenyl-2,4-pyrimidinediamine]	< 500
Cc1cnc(Nc2cc(C)c(C)c(C)c2)nc1Nc1cc(Cl)c2oc(=O)n(COP(=O)(OC(C)(C)C)OC(C)(C)C)c2c1 [Compound I-524, N4-{3-[bis(1,1-dimethylethoxy)]phosphinyloxymethyl-7-chloro-2-oxo-2,3-dihydro-1,3-benzoxazol-5-yl}-N2-(3,4,5-trimethyl)phenyl-5-methyl-2,4-pyrimidinediamine]	> 10000
Cc1cnc(Nc2cc(C)c(C)c(C)c2)nc1Nc1cc(Cl)c2oc(=O)n(COP(=O)(O)O)c2c1 [Compound I-525, N4-[7-chloro-3-(phosphonooxy)methyl-2-oxo-2,3-dihydro-1,3-benzoxazol-5-yl]-5-methyl-N2-(3,4,5-trimethyl)phenyl-2,4-pyrimidinediamine]	500 to 5000
Cc1cnc(Nc2cc(C)c(C)c(F)c2)nc1Nc1ccc2oc(=O)[nH]c2c1 [Compound I-537, N2-(3,4-dimethyl-5-fluoro)phenyl-5-methyl-N4-(2-oxo-2,3-dihydro-1,3-benzoxazol-5-yl)-2,4-pyrimidinediamine]	< 500
